The values below come from patent publication US5543410A, “Pharmacological use of phthaloylhydrazide derivatives; combination and application thereof” (L.I.M.A.D. Limited, priority 1993, dated 1996).

SMILES strings stand for the structures.

In the assay the test system is toxins.

As to `Nc1cccc2c(=O)[nH][nH]c(=O)c12`, the “time to therapeutic effect” value (after administration, acute phase) is listed as “twenty to thirty”. The “injections sufficient for complete elimination of pathological indications” value (within a one-day period) was “one or two”.
